{
  "source": "paper PMC8129716",
  "about": "(CPT: Pharmacometrics & Systems Pharmacology, 2021)",
  "key": {"[1]": {"system": "CYP3A4", "test": "CYP3A4 induction in human hepatocytes", "format": "in vitro ADME"}, "[2]": {"molecular_target": "T1, OAT3 (Homo sapiens, UniProt Q8TCC7)", "T1 sequence (Q8TCC7 1-542)": "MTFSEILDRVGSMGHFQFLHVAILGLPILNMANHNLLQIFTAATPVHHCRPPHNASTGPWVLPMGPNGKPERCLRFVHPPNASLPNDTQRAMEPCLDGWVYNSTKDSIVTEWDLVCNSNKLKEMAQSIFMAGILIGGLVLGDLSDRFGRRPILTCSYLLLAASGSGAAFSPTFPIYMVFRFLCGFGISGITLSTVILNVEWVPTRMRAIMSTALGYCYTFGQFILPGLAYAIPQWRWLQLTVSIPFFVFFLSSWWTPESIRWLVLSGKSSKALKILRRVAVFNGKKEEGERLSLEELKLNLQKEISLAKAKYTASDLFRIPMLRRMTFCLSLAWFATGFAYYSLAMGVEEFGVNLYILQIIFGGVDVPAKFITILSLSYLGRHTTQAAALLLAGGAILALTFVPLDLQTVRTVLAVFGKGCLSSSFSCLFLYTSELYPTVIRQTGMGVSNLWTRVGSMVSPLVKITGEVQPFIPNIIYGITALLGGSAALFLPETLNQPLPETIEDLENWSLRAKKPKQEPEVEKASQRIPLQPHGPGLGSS", "test": "transporter substrate/inhibitor assessment", "format": "in vitro ADME"}, "[3]": {"test": "measured solubility at different pH levels", "format": "physicochemical"}, "[4]": {"system": "CYP3A", "conditions": "cited from earlier work"}, "[5]": {"system": "Caco‐2", "test": "in vitro permeability study", "format": "in vitro ADME", "conditions": "experimental data adjusted to match Fa~0.7"}, "[6]": {"test": "human liver microsome intrinsic clearance", "format": "in vitro ADME", "conditions": "liver microsomes"}, "[7]": {"test": "fraction of unbound drug in plasma", "format": "in vitro ADME"}, "[8]": {"test": "zanubrutinib PBPK model parameters", "design": "species or system human"}, "[9]": {"conditions": "oral, patients with B-cell malignancies; cited from earlier work"}, "[10]": {"molecular_target": "T2, OATP1B3 (Homo sapiens, UniProt Q9NPD5)", "T2 sequence (Q9NPD5 1-702)": "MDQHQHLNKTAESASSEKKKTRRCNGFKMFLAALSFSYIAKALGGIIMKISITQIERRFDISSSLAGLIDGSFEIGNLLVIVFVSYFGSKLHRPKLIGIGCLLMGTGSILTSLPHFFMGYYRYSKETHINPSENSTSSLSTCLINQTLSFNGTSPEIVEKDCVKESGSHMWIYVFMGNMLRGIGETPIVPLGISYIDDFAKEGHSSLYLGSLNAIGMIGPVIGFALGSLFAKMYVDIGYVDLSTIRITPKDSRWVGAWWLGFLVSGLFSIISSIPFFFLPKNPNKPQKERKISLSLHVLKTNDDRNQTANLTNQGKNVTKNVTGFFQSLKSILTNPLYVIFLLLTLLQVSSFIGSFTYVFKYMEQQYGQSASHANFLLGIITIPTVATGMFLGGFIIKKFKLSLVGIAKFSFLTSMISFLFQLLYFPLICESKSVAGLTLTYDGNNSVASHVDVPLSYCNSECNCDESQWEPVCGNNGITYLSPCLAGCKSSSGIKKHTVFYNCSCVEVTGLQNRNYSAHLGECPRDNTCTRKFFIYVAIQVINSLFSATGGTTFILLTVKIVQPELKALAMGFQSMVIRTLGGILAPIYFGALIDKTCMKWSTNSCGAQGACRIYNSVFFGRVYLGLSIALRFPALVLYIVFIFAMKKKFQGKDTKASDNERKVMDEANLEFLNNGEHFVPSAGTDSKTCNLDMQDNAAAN", "test": "transporter substrate/inhibitor assessment", "format": "in vitro ADME"}, "[11]": {"system": "CYP2B6", "test": "CYP2B6 induction in vitro", "format": "in vitro ADME, human"}, "[12]": {"system": "CYP2C9", "conditions": "zanubrutinib 320 mg total daily dose, cocktail; cited from earlier work"}, "[13]": {"conditions": "per FDA DDI guidance, from in vitro data"}},
  "note": "pEC50: −log10 of the molar value.",
  "data": [
    {"smiles": "C=CC(=O)N1CCC([C@@H]2CCNc3c(C(N)=O)c(-c4ccc(Oc5ccccc5)cc4)nn32)CC1", "note": "[zanubrutinib, Zanubrutinib]", "values": [
      {"measurement": "increase of CYP3A4 activity", "setting": "[1]; 3 μM", "result": 6.27, "unit": "fold"},
      {"measurement": "increase of CYP3A4 activity", "setting": "[1]; 30 μM", "result": 2.51, "unit": "fold"},
      {"measurement": "Indmax CYP3A4", "setting": "[1]; Emax model on activity data", "result": 6.27, "unit": "fold"},
      {"measurement": "pEC50", "setting": "[1]; human, hepatocytes", "result": 6.33},
      {"measurement": "R3 (CYP3A induction potential)", "setting": "[1]; [13]", "result": 0.23},
      {"measurement": "substrate or inhibitor of OAT3", "setting": "[2]", "result": "not a substrate or inhibitor"},
      {"measurement": "solubility", "setting": "[3]; pH 1.2", "result": 247, "unit": "µg/mL"},
      {"measurement": "solubility", "setting": "[3]; pH 4.5", "result": 73, "unit": "µg/mL"},
      {"measurement": "solubility", "setting": "[3]; pH 6.8", "result": 54, "unit": "µg/mL"},
      {"measurement": "solubility", "setting": "[3]; pH 7.4", "result": 52, "unit": "µg/mL"},
      {"measurement": "CYP3A induction in vivo", "setting": "[4]; clinical study BGB-3111-108 with midazolam", "result": "weak CYP3A inducer"},
      {"measurement": "mean reduction of systemic exposure of CYP3A and CYP2C19 substrates", "setting": "[4]; zanubrutinib 320 mg total daily dose", "result": "< 50", "unit": "%"},
      {"measurement": "Peff,man", "setting": "[5]", "result": "0.9 10^−4 cm/s"},
      {"measurement": "microsomal CLint", "setting": "[6]", "result": 109, "unit": "µL/min/mg"},
      {"measurement": "fraction unbound", "setting": "[7]", "result": 0.0582},
      {"measurement": "Estimated renal contribution", "setting": "[8]", "result": "Based on human absorption, metabolism, and excretion study (BGB−3111–105); Estimated renal contribution: 1.6% of total CL"},
      {"measurement": "CL renal", "setting": "[8]; human, urine, oral, 320 mg", "result": 8.33, "unit": "mL/min"},
      {"measurement": "mean apparent terminal elimination half-life", "setting": "[9]", "result": "2 to 4", "unit": "h"},
      {"measurement": "substrate or inhibitor of OATP1B3", "setting": "[10]", "result": "not a substrate or inhibitor"},
      {"measurement": "increase of CYP2B6 mRNA levels", "setting": "[11]; 0.3 μM", "result": 1.6, "unit": "fold"},
      {"measurement": "increase of CYP2B6 mRNA levels", "setting": "[11]; 3 μM", "result": 3.6, "unit": "fold"},
      {"measurement": "increase of CYP2B6 mRNA levels", "setting": "[11]; 30 μM", "result": 2.6, "unit": "fold"},
      {"measurement": "Indmax CYP2B6", "setting": "[11]; Emax model", "result": 2.21, "unit": "fold"},
      {"measurement": "pEC50", "setting": "[11]; human, hepatocytes", "result": 6.14},
      {"measurement": "R3 (CYP2B6 induction potential)", "setting": "[11]; [13]", "result": 0.55},
      {"measurement": "effect on the activity of CYP2C9, BCRP and P-gp", "setting": "[12]", "result": "minimal or no effect"}
    ]}
  ]
}
